Test results reported in patent publication US20220031723A1, “POWDERED FOOD COMPOSITION COMPRISING ERIOCITRIN” (EUROMED, S.A., priority 2020, published 2022).

Tests used:
[1] = Urinary excretion of quantified metabolites in collected fractions after extract intake; assay type: in vivo, human; conditions: mean ± SD; for Metabolite quantified in urine fraction F1: fraction 0 to 4 h; for Metabolite quantified in urine fraction F2: fraction 4 to 8 h; for Metabolite quantified in urine fraction F3: fraction 8 to 10 h; for Metabolite quantified in urine fraction F4: fraction collected at 24 h (10-24 h); for Metabolite quantified in urine, Total F (24 h): sum of fractions F1-F4
Protocol: Table 4 and Table 5 show the urinary excretion of quantified metabolites at the different fractions collected, i.e., 0-4 h (F1), 4-8 h (F2), 8-10 h (F3), and 10-24 h (F4), after extracts intake.

[2] = Occurrence of plasma and urine metabolites in volunteers after consuming lemon or orange extract; assay type: in vivo, human
Excerpt: Through a targeted metabolomic strategy, a total of 17 metabolites were tentatively identified (Table 3). No hesperidin or eriocitrin-derived metabolites were detected in any volunteer at baseline. All the identified metabolites were detected at least in one volunteer, independently of the extract consumed, except for the metabolites M9 (eriodictyol sulfoglucuronide) and M11 (hesperetin sulfoglucuronide), which only were detected after consuming lemon and orange extract, respectively (Table 3). These representative EICs illustrate the metabolites identified in urine (F3 fraction) after consuming lemon (FIG. 3A) and orange (FIG. 3B) extracts, and plasma after consuming lemon (FIG. 3C) and orange (FIG. 3D) extracts. From the 17 metabolites, 16 were detected after consuming lemon extract (except M11), and 15 after consuming orange extract (except M9 and M10 in urine, and M9 and M12 in plasma) (Table 3).

Metabolite quantified in urine fraction F1 ([1]; after consuming lemon extract) [μg/mg creatinine] | Metabolite quantified in urine fraction F2 ([1]; after consuming lemon extract) [μg/mg creatinine] | Metabolite quantified in urine fraction F3 ([1]; after consuming lemon extract) [μg/mg creatinine] | Metabolite quantified in urine fraction F4 ([1]; after consuming lemon extract) [μg/mg creatinine] | Metabolite quantified in urine, Total F (24 h) ([1]; after consuming lemon extract) [μg/mg creatinine] | Metabolite quantified in urine fraction F1 ([1]; after consuming orange extract) [μg/mg creatinine] | Metabolite quantified in urine fraction F2 ([1]; after consuming orange extract) [μg/mg creatinine] | Metabolite quantified in urine fraction F3 ([1]; after consuming orange extract) [μg/mg creatinine] | Metabolite quantified in urine fraction F4 ([1]; after consuming orange extract) [μg/mg creatinine] | Metabolite quantified in urine, Total F (24 h) ([1]; after consuming orange extract) [μg/mg creatinine] | Occurrence Plasma LE (number of volunteers in whom metabolite was detected) ([2]; human, in vivo) | Occurrence Plasma LE (second column so headed; number of volunteers in whom metabolite was detected) ([2]; human, in vivo) | Occurrence Urine LE (number of volunteers in whom metabolite was detected) ([2]; human, in vivo) | Occurrence Urine LE (second column so headed; number of volunteers in whom metabolite was detected) ([2]; human, in vivo) | Occurrence Plasma LE (number of volunteers in whom metabolite was detected) ([2]; plasma, after consuming lemon extract (LE), n = 16 volunteers) | Occurrence Plasma LE (second column so headed; number of volunteers in whom metabolite was detected) ([2]; plasma, fourth occurrence column, probably orange extract (OE), n = 16 volunteers) | Occurrence Urine LE (number of volunteers in whom metabolite was detected) ([2]; urine, after consuming lemon extract (LE), n = 16 volunteers) | Occurrence Urine LE (second column so headed; number of volunteers in whom metabolite was detected) ([2]; urine, third occurrence column, probably orange extract (OE), n = 16 volunteers) | Molecule
1.2 ± 1.4 | 4.0 ± 4.7 | 2.7 ± 2.5 | 0.6 ± 0.6 | 8.5 ± 9.2 | 0.2 ± 0.6 | 2.1 ± 5.7 | 2.2 ± 3.6 | 1.1 ± 3.3 | 5.6 ± 13.2 | 16 | 16 | 16 | 16 | – | – | – | – | COc1ccc([C@@H]2CC(=O)c3c(O)cc(O[C@@H]4O[C@H](C(=O)O)[C@@H](O)[C@H](O)[C@H]4O)cc3O2)cc1O [M7, Hesperetin 7-O-glucuronide]
– | – | – | – | – | – | – | – | – | – | 6 | 2 | 9 | 5 | – | – | – | – | O=C1C[C@@H](c2ccc(O)cc2)Oc2cc(O)cc(O)c21 [M15, Naringenin]
2.1 ± 2.3 | 10.7 ± 11.3 | 9.2 ± 7.7 | 2.2 ± 2.4 | 24.2 ± 23.7 | 0.5 ± 1.5 | 4.3 ± 11.5 | 3.3 ± 4.2 | 1.8 ± 1.6 | 9.9 ± 18.9 | 16 | 16 | 16 | 16 | – | – | – | – | COc1ccc(C2CC(=O)c3c(O)cc(O)cc3O2)cc1O[C@@H]1O[C@H](C(=O)O)[C@@H](O)[C@H](O)[C@H]1O (stereo partly shown) [M8, Hesperetin 3'-O-glucuronide]
0.8 ± 0.5 | 1.7 ± 2.7 | 1.3 ± 1.5 | 0.4 ± 0.3 | 4.2 ± 5.0 | 0.1 ± 0.1 | 0.3 ± 0.5 | 0.3 ± 0.4 | 0.3 ± 0.5 | 1.0 ± 1.5 | – | – | – | – | 16 | 14 | 16 | 16 | O=C1C[C@@H](c2ccc(O[C@@H]3O[C@H](C(=O)O)[C@@H](O)[C@H](O)[C@H]3O)cc2)Oc2cc(O)cc(O)c21 [M5, Naringenin 4'-O-glucuronide]
– | – | – | – | – | – | – | – | – | – | 0 | 8 | 0 | 7 | – | – | – | – | Hesperetin sulfoglucuronide [M11]
– | – | – | – | – | – | – | – | – | – | 15 | 0 | 5 | 0 | – | – | – | – | Eriodictyol sulfoglucuronide [M9]
13.9 ± 16.2 | 48.1 ± 90.0 | 37.2 ± 56.9 | 6.8 ± 8.0 | 106 ± 171 | – | – | – | – | – | 16 | 3 | 16 | 3 | – | – | – | – | Homoeriodictyol glucuronide [M6]
3.8 ± 3.2 | 4.0 ± 5.5 | 3.6 ± 4.1 | 0.5 ± 0.4 | 9.6 ± 11.3 | – | – | – | – | – | 16 | 3 | 16 | 0 | – | – | – | – | Homoeriodictyol sulfate [M10]
– | – | – | – | – | – | – | – | – | – | 16 | 0 | 14 | 4 | – | – | – | – | O=C1C[C@@H](c2ccc(O)c(O)c2)Oc2cc(O)cc(O)c21 [M12, Eriodictyol]
– | – | – | – | – | – | – | – | – | – | 8 | 3 | 5 | 8 | – | – | – | – | COc1ccc([C@@H]2CC(=O)c3c(O)cc(O)cc3O2)cc1O [M17, Hesperetin]
4.6 ± 5.0 | 14.6 ± 17.3 | 11.9 ± 12.6 | 1.5 ± 1.5 | 32.6 ± 36.5 | 0.02 ± 0.01 | 0.1 ± 0.1 | 0.2 ± 0.4 | 0.3 ± 0.4 | 0.6 ± 0.9 | 16 | 10 | 16 | 12 | – | – | – | – | Eriodictyol sulfate [M13]
1.0 ± 0.7 | 2.6 ± 4.0 | 1.7 ± 1.9 | 0.3 ± 0.3 | 5.7 ± 6.9 | 0.1 ± 0.1 | 0.2 ± 0.6 | 0.2 ± 0.2 | 0.2 ± 0.3 | 0.7 ± 1.5 | 16 | 14 | 16 | 16 | – | – | – | – | O=C1C[C@@H](c2ccc(O)cc2)Oc2cc(O[C@@H]3O[C@H](C(=O)O)[C@@H](O)[C@H](O)[C@H]3O)cc(O)c21 [M3, Naringenin 7-O-glucuronide]
– | – | – | – | – | – | – | – | – | – | 15 | 1 | 12 | 1 | – | – | – | – | COc1cc([C@@H]2CC(=O)c3c(O)cc(O)cc3O2)ccc1O [M16, Homoeriodictyol]
